From US7776794B2, “Biosensor using living cells on silicon-based microarrays” (The Research Foundation of State University of New York, priority 2003, dated 2010)

Tested on: FT cells
Experiment: Amperometric recording of norepinephrine release from pre-loaded FT cells on the microarray upon ATP stimulation
Format: cell-based, Rana catesbeiana
Settings: ATP final concentration 300 μM in FT medium; FT cells preloaded in 4 mM NE for 15 min; single electrode held at 700 mV (FIG. 9, trace 1)
Protocol: The cells, which have grown to become a confluent monolayer on the surface of the microarray, are “pre-loaded” with medium containing the appropriate amount of an oxidizable molecule, for example, 0.5-10 mM of a catecholamine such as norepinephrine (NE), for a time sufficient for the cells to endocytose the catecholamine, about 1-30 minutes. The pre-loading medium is then replaced with fresh medium, and the solution is grounded with a Ag/AgCl wire.
Within minutes of pre-loading, the cells are then exposed to a biological sample containing an analyte, the detection of which is desired. Binding of analyte to a receptor on the cells' surface increases intracellular calcium, thereby stimulating release of the pre-loaded NE. This secretion event is detected with millisecond temporal resolution via electrochemical oxidation of the secreted compound on an electrode that is voltage-clamped slightly above its redox potential. Increases in current due to oxidation of NE on the Cr/Au electrode is recorded. This is represented schematically in FIG. 4.
A microarray containing a confluent growth of FT cells was subsequently tested. To test the response properties of the cells to ATP (0.3 mM), microarrays with confluent cultures of cells were measured prior to preloading with NE. Then, cells were pre-loaded with varying concentrations of NE and ATP was reapplied. […]

Nc1ncnc2c1ncn2[C@@H]1O[C@H](COP(=O)(O)OP(=O)(O)OP(=O)(O)O)[C@@H](O)[C@H]1O [ATP]
duration of current response: 9 to 10 min | peak current above baseline: approximately 800 pA
